What was measured:
[1] = biological target: T1, Human Neuropeptide Y2 Receptor (Homo sapiens, UniProt P49146); experiment: Radioligand binding competition assay (RLB); conditions: Table 3, 125I-PYY(1-36) competition; read-out: Ki
T1 construct: purchased CHEMICON HTS066M
T1 sequence (P49146 1-381): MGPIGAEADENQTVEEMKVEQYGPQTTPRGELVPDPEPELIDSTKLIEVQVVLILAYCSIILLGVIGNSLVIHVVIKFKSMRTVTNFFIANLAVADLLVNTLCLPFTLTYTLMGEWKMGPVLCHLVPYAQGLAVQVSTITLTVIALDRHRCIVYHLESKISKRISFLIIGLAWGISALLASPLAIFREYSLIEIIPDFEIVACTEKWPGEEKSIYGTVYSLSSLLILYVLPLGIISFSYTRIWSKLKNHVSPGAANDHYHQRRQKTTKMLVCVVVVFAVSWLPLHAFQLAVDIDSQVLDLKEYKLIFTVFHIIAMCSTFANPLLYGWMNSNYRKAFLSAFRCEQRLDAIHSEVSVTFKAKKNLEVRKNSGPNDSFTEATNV
In short: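 Receptor membranes, 0.5 μg/well; buffer 50 mM HEPES/5 mM MgCl2/1 mM CaCl2/0.2% ovalbumin, pH 7.4; 2 h RT, shaking. GF/C filtration, cold HEPES/500 mM NaCl wash, scintillation count. IC50 by nonlinear regression.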

[2] = biological target: T2, human NPY1 receptor (hY1R) (Homo sapiens, UniProt P25929); experiment: HTRF cAMP Gi assay, hY1R; assay type: cell-based; conditions: CHO-K1 cells
T2 construct: expressed in transfected cells; host or cells: CHO-K1
T2 sequence (P25929 1-384): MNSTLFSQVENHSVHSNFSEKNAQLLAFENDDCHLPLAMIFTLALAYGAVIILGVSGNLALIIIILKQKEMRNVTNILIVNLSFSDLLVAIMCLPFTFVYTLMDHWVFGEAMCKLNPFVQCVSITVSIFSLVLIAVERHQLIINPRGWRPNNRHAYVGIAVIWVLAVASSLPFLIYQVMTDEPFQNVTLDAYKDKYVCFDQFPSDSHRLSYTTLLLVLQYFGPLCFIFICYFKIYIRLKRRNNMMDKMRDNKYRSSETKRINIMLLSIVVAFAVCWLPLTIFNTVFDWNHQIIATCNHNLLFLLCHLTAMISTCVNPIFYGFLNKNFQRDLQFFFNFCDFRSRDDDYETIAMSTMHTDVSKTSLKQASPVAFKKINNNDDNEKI
Description: Briefly, the production of intracellular cAMP will generate a competition between unlabeled cAMP and exogenously added d2-cAMP for anti-cAMP antibodies conjugated to cryptate. CHO-K1 cells stably expressing the human NPY1, NPY2, NPY4 and NPY5 receptors were used with the cells brought to life from a frozen stock immediately before assay performance. 2000 cells per well were applied for all four NPY receptor subtype assays. A 384-well format was used applying a total volume of 20 μl using 5 μl cells, 2.5 μl peptide agonist, 2.5 μl forskolin and 5 μl of each of the fluorophores. […] Concentration-response evaluation of compounds was performed with 11 concentrations of agonist peptides (covering 3 decades). EC50 values were calculated by nonlinear regression using sigmoid concentration-response with variable slope.

[3] = biological target: T3, human NPY4 receptor (hY4R) (Homo sapiens, UniProt P50391); experiment: HTRF cAMP Gi assay, hY4R; assay type: cell-based; conditions: CHO-K1 cells
T3 construct: expressed in transfected cells; host or cells: CHO-K1

Solubility determination = conditions: for Sol6: pH 6; for Sol7: pH 7
In short: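 Shake-flask style: 10 mg/ml peptide (TFA salt), 0.1 M sodium diphosphate pH 6.4/7.0, 600 rpm, 2 h, RT; filter; dilute 1 mg/ml in 50% MeCN; RP-UPLC, 0–100% B over 2 min, 50 °C. Solubility = sample/control area ratio. Final pH recorded.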

[4] = biological target: T4, human NPY2 receptor (hY2R) (Homo sapiens, UniProt P49146); experiment: HTRF cAMP Gi assay, hY2R
T4 sequence (P49146 1-381): T1 sequence (P49146 1-381)
Excerpt: The Homogenous Time Resolved fluorescence (HTRF) technology optimized for Gi coupled receptors has thoroughly been described in Cisbio cAMP Gi kit manual. Briefly, the production of intracellular cAMP will generate a competition between unlabeled cAMP and exogenously added d2-cAMP for anti-cAMP antibodies conjugated to cryptate. CHO-K1 cells stably expressing the human NPY1, NPY2, NPY4 and NPY5 receptors were used with the cells brought to life from a frozen stock immediately before assay performance. 2000 cells per well were applied for all four NPY receptor subtype assays. A 384-well format was used applying a total volume of 20 μl using 5 μl cells, 2.5 μl peptide agonist, 2.5 μl forskolin and 5 μl of each of the fluorophores. […] Concentration-response evaluation of compounds was performed with 11 concentrations of agonist peptides (covering 3 decades). EC50 values were calculated by nonlinear regression using sigmoid concentration-response with variable slope.

[5] = biological target: T5, human NPY5 receptor (hY5R) (Homo sapiens, UniProt Q15761); experiment: HTRF cAMP Gi assay, hY5R
T5 sequence (Q15761 1-445): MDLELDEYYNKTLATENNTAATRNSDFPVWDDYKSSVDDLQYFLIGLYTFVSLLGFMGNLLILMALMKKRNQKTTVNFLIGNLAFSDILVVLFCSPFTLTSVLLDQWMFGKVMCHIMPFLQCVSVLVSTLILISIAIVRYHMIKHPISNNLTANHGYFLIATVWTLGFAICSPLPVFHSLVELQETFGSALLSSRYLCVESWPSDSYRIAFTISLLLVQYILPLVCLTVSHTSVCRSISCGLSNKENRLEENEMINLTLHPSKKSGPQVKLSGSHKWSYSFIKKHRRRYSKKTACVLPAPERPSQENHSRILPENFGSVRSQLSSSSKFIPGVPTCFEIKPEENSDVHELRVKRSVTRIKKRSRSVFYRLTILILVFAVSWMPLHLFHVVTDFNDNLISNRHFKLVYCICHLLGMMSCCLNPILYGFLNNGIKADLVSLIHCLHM

T3 sequence (P50391 whole entry): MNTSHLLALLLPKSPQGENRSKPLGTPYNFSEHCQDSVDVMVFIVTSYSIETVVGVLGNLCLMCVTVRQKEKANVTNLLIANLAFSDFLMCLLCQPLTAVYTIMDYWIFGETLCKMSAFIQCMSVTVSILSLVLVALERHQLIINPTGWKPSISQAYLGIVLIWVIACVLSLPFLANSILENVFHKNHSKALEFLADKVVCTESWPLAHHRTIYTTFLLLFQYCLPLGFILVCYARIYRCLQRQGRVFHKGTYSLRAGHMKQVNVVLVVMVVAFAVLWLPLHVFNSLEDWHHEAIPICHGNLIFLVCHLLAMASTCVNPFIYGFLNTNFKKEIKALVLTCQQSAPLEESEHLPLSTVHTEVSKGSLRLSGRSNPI

CC(C)CC(=O)N[C@@H](C)C(=O)N1CCC[C@H]1C(=O)N[C@@H](CCC(=O)O)C(=O)N[C@@H](CCCCNC(=O)CCCCCNC(=O)CC[C@H](NC(=O)CCCCCCCCCCCCCCCCC(=O)O)C(=O)O)C(=O)N1CCC[C@H]1C(=O)N[C@@H](CCC(=O)O)C(=O)N[C@@H](CCC(=O)O)C(=O)N[C@@H](CC(=O)O)C(=O)N[C@@H](C)C(=O)N[C@@H](CCC(=O)O)C(=O)N1CCC[C@H]1C(=O)N[C@@H](CCC(=O)O)C(=O)N[C@@H](CCC(=O)O)C(=O)N[C@H](C(=O)N[C@@H](CCC(N)=O)C(=O)N[C@@H](CCCNC(=N)N)C(=O)N[C@@H](Cc1ccc(O)cc1)C(=O)N[C@@H](Cc1ccc(O)cc1)C(=O)N[C@H](C(=O)N[C@@H](CO)C(=O)N[C@@H](CC(C)C)C(=O)N[C@@H](CCCNC(=N)N)C(=O)N[C@@H](Cc1c[nH]cn1)C(=O)N[C@@H](Cc1ccc(O)cc1)C(=O)N[C@@H](Cc1ccc(O)cc1)C(=O)N[C@@H](CC(N)=O)C(=O)N[C@@H](Cc1c[nH]c2ccccc12)C(=O)N[C@@H](CC(C)C)C(=O)N[C@H](C(=O)N[C@@H](CCCNC(=N)N)C(=O)N[C@@H](CCC(N)=O)C(=O)N[C@@H](CCCNC(=N)N)C(=O)N[C@@H](Cc1ccc(O)cc1)C(N)=O)[C@@H](C)O)C(C)C)C(C)C [Compound 53, N{alpha-4}-(3-methylbutanoyl)-N{epsilon-7}-(6-[(4S)-4-carboxy-4-(17-carboxyheptadecanamido)butanamido]hexanoyl)-[4A,7K,9E,13E,17V,18Q,22V,28Y,30W,31L]-hPYY(4-36)]
Ki [1]: 3.07 nM
EC50 [2]: > 5 µM
EC50 [3]: > 5 µM
Sol6 (Solubility determination): 8.7 mg/mL
Sol7 (Solubility determination): 9.6 mg/mL
EC50 [4]: 0.352 nM
EC50 [5]: > 5 µM

CC[C@H](C)[C@H](NC(=O)[C@H](CCC(=O)O)NC(=O)[C@H](CCC(=O)O)NC(=O)[C@H](CCC(=O)O)NC(=O)[C@H](CO)NC(=O)[C@H](C)NC(=O)[C@H](CC(=O)O)NC(=O)[C@H](CCC(=O)O)NC(=O)[C@H](CCC(=O)O)NC(=O)[C@@H]1CCCN1C(=O)[C@H](CCCCNC(=O)CCCCCNC(=O)CC[C@H](NC(=O)CCCCCCCCCCCCCCCCC(=O)O)C(=O)O)NC(=O)[C@H](CCC(=O)O)NC(=O)[C@@H]1CCCN1C(=O)[C@H](C)NC(=O)CC(C)C)C(=O)N[C@@H](CCC(N)=O)C(=O)N[C@@H](CCCNC(=N)N)C(=O)N[C@@H](Cc1ccc(O)cc1)C(=O)N[C@@H](Cc1ccc(O)cc1)C(=O)N[C@H](C(=O)N[C@@H](CO)C(=O)N[C@@H](CC(C)C)C(=O)N[C@@H](CCCNC(=N)N)C(=O)N[C@@H](Cc1c[nH]cn1)C(=O)N[C@@H](Cc1ccc(O)cc1)C(=O)N[C@@H](Cc1ccc(O)cc1)C(=O)N[C@@H](CC(N)=O)C(=O)N[C@@H](Cc1c[nH]c2ccccc12)C(=O)N[C@@H](CC(C)C)C(=O)N[C@H](C(=O)N[C@@H](CCCNC(=N)N)C(=O)N[C@@H](CCC(N)=O)C(=O)N[C@@H](CCCNC(=N)N)C(=O)N[C@@H](Cc1ccc(O)cc1)C(N)=O)[C@@H](C)O)C(C)C [Compound 55, N{alpha-4}-(3-methylbutanoyl)-N{epsilon-7}-(6-[(4S)-4-carboxy-4-(17-carboxyheptadecanamido)butanamido]hexanoyl)-[4A,7K,9E,14E,17I,18Q,22V,28Y,30W,31L]-hPYY(4-36)]
Ki [1]: 2.96 nM
EC50 [2]: > 5 µM
EC50 [3]: > 5 µM
Sol6 (Solubility determination): >10.0 mg/mL
Sol7 (Solubility determination): >10.0 mg/mL
EC50 [4]: 0.352 nM
EC50 [5]: > 5 µM

CC[C@H](C)[C@H](NC(=O)[C@H](Cc1ccc(O)cc1)NC(=O)[C@H](Cc1ccc(O)cc1)NC(=O)[C@H](CCCNC(=N)N)NC(=O)[C@H](CCC(N)=O)NC(=O)[C@@H](NC(=O)[C@H](CCC(=O)O)NC(=O)[C@H](CCC(=O)O)NC(=O)[C@@H]1CCCN1C(=O)[C@H](CO)NC(=O)[C@H](C)NC(=O)[C@H](CC(=O)O)NC(=O)[C@H](CCC(=O)O)NC(=O)[C@H](CCC(=O)O)NC(=O)[C@@H]1CCCN1C(=O)[C@H](CCCCNC(=O)CCCCCNC(=O)CC[C@H](NC(=O)CCCCCCCCCCCCCCCCC(=O)O)C(=O)O)NC(=O)[C@H](C)NC(=O)[C@@H]1CCCN1C(=O)[C@H](C)NC(=O)CC(C)C)[C@@H](C)CC)C(=O)N[C@@H](CO)C(=O)N[C@@H](CC(C)C)C(=O)N[C@@H](CCCNC(=N)N)C(=O)N[C@@H](Cc1c[nH]cn1)C(=O)N[C@@H](Cc1ccc(O)cc1)C(=O)N[C@@H](Cc1ccc(O)cc1)C(=O)N[C@@H](CC(N)=O)C(=O)N[C@@H](Cc1c[nH]c2ccccc12)C(=O)N[C@@H](CC(C)C)C(=O)N[C@H](C(=O)N[C@@H](CCCNC(=N)N)C(=O)N[C@@H](CCC(N)=O)C(=O)N[C@@H](CCCNC(=N)N)C(=O)N[C@@H](Cc1ccc(O)cc1)C(N)=O)[C@@H](C)O [Compound 195, N{alpha-4}-(3-methylbutanoyl)-N{epsilon-7}-(6-[(4S)-4-carboxy-4-(17-carboxyheptadecanamido)butanamido]hexanoyl)-[4A,6A,7K,9E,17I,18Q,22I,28Y,30W,31L]-hPYY(4-36)]
Ki [1]: 0.78 nM
EC50 [2]: > 5 µM
EC50 [3]: > 5 µM
Sol6 (Solubility determination): 8.2 mg/mL
Sol7 (Solubility determination): 8.2 mg/mL
EC50 [4]: 0.197 nM
EC50 [5]: > 5 µM

From patent US12391737B2, “Soluble NPY2 receptor agonists” (Boehringer Ingelheim International GmbH, priority 2020, dated 2025)
